Earlier results in US20140045904A1, “NIACIN FORMULATIONS AND METHODS WITH REDUCED FLUSHING SIDE EFFECT” (priority 2010, published 2014).

Assays:
niacin-induced flushing = details: rofecoxib: single dose of 500 mg immediate-release niacin; laropiprant: clinical trials; aspirin: oral niacin
COX-2 = COX-2 (Homo sapiens, UniProt P35354); details: while sparing COX-1
HDL cholesterol = details: low doses of niacin (300-1,000 mg/day)
PGD-2 = details: niacin given orally (500 mg)
prostacyclin (PGI-2) = details: ingestion of oral niacin
rat macrophages = details: dual inhibitor of COX-1 and COX-2

Sequence of COX-2 (P35354 18-604): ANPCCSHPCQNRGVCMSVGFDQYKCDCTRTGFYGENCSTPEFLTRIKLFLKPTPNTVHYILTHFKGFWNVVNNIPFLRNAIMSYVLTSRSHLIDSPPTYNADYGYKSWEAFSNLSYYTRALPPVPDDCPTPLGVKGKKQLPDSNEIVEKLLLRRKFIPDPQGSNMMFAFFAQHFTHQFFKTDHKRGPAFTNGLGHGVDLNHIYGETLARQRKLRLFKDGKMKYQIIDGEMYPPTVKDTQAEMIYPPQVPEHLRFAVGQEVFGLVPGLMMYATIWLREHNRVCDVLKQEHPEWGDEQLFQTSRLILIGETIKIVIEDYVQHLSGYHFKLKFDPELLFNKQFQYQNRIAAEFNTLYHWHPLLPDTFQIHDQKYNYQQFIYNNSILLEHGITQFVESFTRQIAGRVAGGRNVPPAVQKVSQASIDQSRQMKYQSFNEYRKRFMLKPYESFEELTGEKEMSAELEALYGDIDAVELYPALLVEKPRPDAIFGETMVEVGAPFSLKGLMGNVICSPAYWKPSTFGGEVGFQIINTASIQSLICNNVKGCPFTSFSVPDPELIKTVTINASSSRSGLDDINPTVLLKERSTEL

CS(=O)(=O)c1ccc(C2=C(c3ccccc3)C(=O)OC2)cc1 [rofecoxib]
effect of pretreatment on flushing from niacin (niacin-induced flushing): did not result in a reduction of flushing | inhibition of COX-2 in vivo (COX-2): about 90%

CS(=O)(=O)c1cc(F)cc2c3c(n(Cc4ccc(Cl)cc4)c12)[C@@H](CC(=O)O)CC3 [laropiprant]
effect of pretreatment on flushing from niacin (niacin-induced flushing): substantially reduced, but fell far short of eliminating

CC(=O)Oc1ccccc1C(=O)O [aspirin]
effect of pretreatment on flushing from niacin (niacin-induced flushing): can suppress the flush

O=C(O)c1cccnc1 [niacin, pyridine-3-carboxylic acid]
raise of HDL cholesterol (HDL cholesterol): up to 45% | increase of levels of the major metabolite of PGD-2 (PGD-2): 400 to 800 fold | time to decline of PGD-2 metabolite to near normal levels (PGD-2): 2 to 4 h | time to increase of PGD-2 metabolite after ingestion (PGD-2): 12 to 45 min | increase in prostacyclin (PGI-2) (prostacyclin (PGI-2)): 2 fold | major urinary metabolite of PGE-2 (PGE-M) (prostacyclin (PGI-2)): does not increase

COc1ccc2c(c1)c(CC(=O)O)c(C)n2C(=O)c1ccc(Cl)cc1 [indomethacin]
endogenous production of PGE-2 and PGD-2 (rat macrophages): suppressed
